Test results published in ChEMBL document CHEMBL3137667, “[Drug-induced liver injury; fourteenth updated edition of the bibliographic database of liver injuries and related drugs]” (Gastroenterol Clin Biol, 2004).

How the values were obtained:
[1] = human
[2] = human, serum
[3] = Comments (NB not yet translated). [column 'COMMENTAIRES' in source]; details: human
[4] = human; remark: listed apart in the source
[5] = human; remark: listed apart in the source
[6] = human; remark: listed apart in the source
[7] = human, serum; remark: listed apart in the source
[8] = human; remark: listed apart in the source
[9] = Highest frequency of acute liver toxicity observed during clinical trials, expressed as a percentage. [column '% AIGUE' in source]; details: human
[10] = Highest frequency of moderate liver toxicity observed during clinical trials, expressed as a percentage. [column '% BIOL' in source]; details: human
[11] = human; remark: listed apart in the source
[12] = human, serum, 4383 h
[13] = Times to onset, minimal and maximal, observed in the indexed observations. [column 'DELAI' in source]; details: human
[14] = human; remark: listed apart in the source
[15] = human; remark: listed apart in the source
[16] = human; remark: listed apart in the source
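Throughout, for Hepatotoxicity (association with vascular disease): count of indexed literature references reporting vascular liver injury in humans, e.g. peliosis hepatitis, hepatic veno-occlusive disease or Budd-Chiari syndrome.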
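Throughout, for Hepatotoxicity (benign tumour): value is a count of indexed literature references citing a benign tumour confirmed by histopathology.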
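Throughout, for Hepatotoxicity (choleostasis): human cholestatic liver injury, shown by histopathology or by peak ALT or AST elevation over alkaline phosphatase ratio below 2, value counts indexed literature reports.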
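Throughout, for Hepatotoxicity (chronic liver disease): chronic liver injury confirmed by histopathology or persistently raised serum aminotransferase activity beyond 6 months, value given as the count of indexed literature references.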
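Throughout, for Hepatotoxicity (cirrhosis): value is a count of indexed literature references reporting cirrhosis confirmed by histopathology.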
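Throughout, for Hepatotoxicity (cytolytic): human cytolytic liver injury, shown by histopathology or by a ratio above 5 of peak ALT or AST elevation to alkaline phosphatase elevation, value counts indexed references.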
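Throughout, for Hepatotoxicity (granulomatous hepatitis): value is a count of indexed literature references reporting granulomatous liver disease confirmed by histopathology.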
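Throughout, for Hepatotoxicity (malignant tumour): malignant tumour confirmed by histopathology, value gives the count of indexed literature references reporting it.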
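Throughout, for Hepatotoxicity (severe hepatitis): human clinical data: severe hepatitis, meaning potentially life-threatening liver failure or clinically observed cases, the value counts how many indexed literature references report it.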
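Throughout, for Hepatotoxicity (steatosis): steatosis confirmed by histopathology, value is the count of indexed references.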

Row | Compound | Hepatotoxicity (association with vascular disease) [1] | Hepatotoxicity (acute) [2] | Hepatotoxicity (comment) [3] | Hepatotoxicity (cytolytic) [4] | Hepatotoxicity (cirrhosis) [5] | Hepatotoxicity (steatosis) [6] | Hepatotoxicity (moderate) [7] | Hepatotoxicity (granulomatous hepatitis) [8] | Hepatotoxicity (acute) [9] [%] | Hepatotoxicity (moderate) [10] [%] | Hepatotoxicity (choleostasis) [11] | Hepatotoxicity (chronic liver disease) [12] | Hepatotoxicity (time to onset) [13] | Hepatotoxicity (benign tumour) [14] | Hepatotoxicity (severe hepatitis) [15] | Hepatotoxicity (malignant tumour) [16]
1 | C1CCC(C(CC2CCCCN2)C2CCCCC2)CC1 (stereo not drawn) [PERHEXILINE] | 0 | 11 | I/AMIODARONE/BEZAFIBRATE/PAROXETINE INCLUSIONLAMELLAIRE | 9 | 22 | 10 | 18 | 1 | 0 | 30 | 2 | 1 | 3 weeks - 12 years | 0 | 5 | 0
2 | CC(Cc1ccccc1)NN (stereo not drawn) [PHENIPRAZINE] | 0 | 7 | RC/NIALAMIDE/IPRONIAZIDE | 7 | 0 | 0 | 0 | 0 | 0 | 0 | 0 | 0 | 2 weeks - 7 months | 0 | 5 | 0
3 | CCc1ccc(CCOc2ccc(CC3SC(=O)NC3=O)cc2)nc1 (stereo not drawn) [PIOGLITAZONE] | 0 | 5 | CHOLESTASE_PROLONGEE PERICHOLANGIOLITE CHOLANGIOLITE | 3 | 0 | 0 | 3 | 0 | 0 | 0.4 | 3 | 0 | 23 days - 7 months | 0 | 1 | 0
4 | C[C@]12C=CC(=O)C=C1CC[C@@H]1[C@@H]2[C@@H](O)C[C@@]2(C)[C@H]1CC[C@]2(O)C(=O)CO [PREDNISOLONE] | 0 | 2 | AGGRAVATION_ANGIOMES | 2 | 0 | 2 | 0 | 0 | 0 | 0 | 0 | 0 | 6 days - 8 years | 1 | 2 | 0
5 | CN1CCN(CCCN2c3ccccc3Sc3ccc(Cl)cc32)CC1 [PROCHLORPERAZINE] | 0 | 9 | I/IPRONIAZIDE CHOLESTASE_PROLONGEE DUCTOPENIE | 3 | 0 | 0 | 0 | 0 | 0 | 0 | 6 | 3 | 1 week - 4 months | 0 | 3 | 0
6 | CC(=O)[C@H]1CC[C@H]2[C@@H]3CCC4=CC(=O)CC[C@]4(C)[C@H]3CC[C@]12C [PROGESTERONE] | 0 | 3 | HNF | 2 | 0 | 0 | 2 | 0 | 0 | 13.3 | 1 | 0 | 1 week - 40 weeks | 1 | 0 | 0
7 | O=C(c1ccc(OCCN2CCCCC2)cc1)c1c(-c2ccc(O)cc2)sc2cc(O)ccc12 [RALOXIFENE] | 0 | 1 | CHOLESTASE_PROLONGEE | 0 | 0 | 0 | 1 | 0 | 0 | 16.7 | 1 | 0 | 30 days | 0 | 0 | 0
8 | Cc1nc2n(c(=O)c1CCN1CCC(c3noc4cc(F)ccc34)CC1)CCCC2 [RISPERIDONE] | 0 | 6 | PERICHOLANGITE HYPERBILIRUBINEMIE | 5 | 0 | 4 | 4 | 0 | 4 | 6 | 2 | 0 | 2 days - 1 year | 0 | 0 | 0
9 | C#CCN(C)[C@H](C)Cc1ccccc1 [SELEGILINE] | 0 | 1 | CHOLESTASE_PROLONGEE | 0 | 0 | 0 | 2 | 0 | 0 | 4 | 1 | 0 | 3 months | 0 | 0 | 0
10 | C[C@]12Cc3c[nH]nc3C[C@@H]1CC[C@@H]1[C@@H]2CC[C@@]2(C)[C@H]1CC[C@]2(C)O [STANOZOLOL] | 0 | 6 | ANGIOSARCOME HNF | 2 | 0 | 0 | 6 | 0 | 0 | 26.1 | 4 | 0 | 1 month - 20 years | 3 | 1 | 2
11 | CCN1CCCC1CNC(=O)c1cc(S(N)(=O)=O)ccc1OC (stereo not drawn) [SULPIRIDE] | 0 | 3 | DUCTOPENIE | 0 | 0 | 0 | 3 | 0 | 0 | 4 | 1 | 0 | 1 week - 3 months | 0 | 1 | 0
12 | Cc1ccc(C(=O)Nc2ccc(S(=O)(=O)O)c3cc(S(=O)(=O)O)cc(S(=O)(=O)O)c23)cc1NC(=O)c1cccc(NC(=O)Nc2cccc(C(=O)Nc3cc(C(=O)Nc4ccc(S(=O)(=O)O)c5cc(S(=O)(=O)O)cc(S(=O)(=O)O)c45)ccc3C)c2)c1 [SURAMIN] | 0 | 3 | REACTIVATION_HVB | 1 | 0 | 0 | 11 | 0 | 6.3 | 63 | 0 | 0 | 1 week - 8 months | 0 | 1 | 0
13 | CC(C)(C)NCC(O)c1cc(O)cc(O)c1 (stereo not drawn) [TERBUTALINE] | 0 | 2 | VOIR_BAMBUTEROL | 2 | 0 | 0 | 0 | 0 | 0 | 0 | 0 | 0 | 4 weeks - 8 weeks | 0 | 0 | 0
